# In patent US10362781B2, “Methods of controlling the breeding behavior of butterflies” (University of the West Indies, a Regional Institution, …, priority 2010, dated 2019):
# What was measured:
# Type in all cases: in vivo, Heraclides andraemon
# [1] = test system: H. andraemon; assay: Egg laying of lime (citrus) plant bred H. andraemon given a choice of plants on which to lay (Example 7); conditions: eggs laid on Piper amalago var. amalago plants sprayed with the substance, lime plant-reared butterflies, choice of 4 plants
# Procedure: The aerosol mixture for application to citrus plant and Piper amalago var. amalago plant materials was prepared by combining lime plant oil, Piper amalago var. amalago plant oil, d-limonene, or a combination thereof, with an alkane hydrocarbon mixture consisting of 28% butane and 72% propane. The aerosol was filled to a concentration of, e.g., 0.25% by weight of Piper amalago var. amalago plant oil in the hydrocarbon mixture or, e.g., 0.45% by weight of lime plant oil in the hydrocarbon mixture.
# H. andraemon larvae were reared on lime plant. When they pupated and were ready to lay eggs, they were given the choice of plants on which to lay eggs: unsprayed lime plants, unsprayed Piper amalago var. amalago plants, Piper amalago var. amalago plants sprayed with lime plant oil, and Piper amalago var. amalago plants sprayed with d-limonene. Egg laying was permitted to continue until the butterflies ceased laying eggs. Nearly 100% of the eggs laid hatched into larvae.
# Table 5 summarizes the results of an experiment in which the faithfulness of egg laying on the species of plant on which the butterflies were reared was confirmed. In this experiment, both lime plant oil and d-limonene were sprayed onto Piper amalago var. amalago plant to determine whether the butterflies discriminated between the two.
# [2] = test system: H. andraemon; assay: H. andraemon egg laying on lime plant seedling and P. aduncum, choice of four plants (Example 9); conditions: P. aduncum cuttings sprayed twice daily with 0.15% d-limonene aerosol; choice of 4 plants
# From the text: Butterflies were induced to lay on host plant Piper aduncum plant sprayed with lime plant oil, or lime plant sprayed with Piper aduncum plant oil. Piper aduncum shoots were collected in Andrew, Jamaica, and 297.35 g of leaves were placed in a Clevenger-type extractor and extracted with boiling water. Once extracted according to the methods described in Example 2, 0.8919 g of a clear oil with a minty-like odor was obtained, a yield of 0.30% by weight.
# Four Heraclides andraemon pupae were placed in the cage previously described in Example 1. Three pupae hatched into adults, two males and a female, which were allowed to mate and lay eggs. They were given a choice of four types of plants on which to lay: unsprayed Piper aduncum cuttings; Piper aduncum cuttings sprayed with d-limonene; unsprayed lime seedlings; and lime seedlings sprayed with the Piper aduncum emulsion. These plants, all with young leaves, were placed around the cage.
# Cuttings from the Piper aduncum shoots with young leaves were used to attempt to induce butterflies to feed and lay eggs on a Piper aduncum plant treated with lime plant extract. The Piper aduncum cuttings were sprayed twice daily for eight days, once in the morning and once in the afternoon, with a d-limonene aerosol formulation. The d-limonene aerosol formulation was prepared as a hydrocarbon mixture of 72% propane and 28% butane, with 0.15% d-limonene. […]
# [3] = test system: H. andraemon; assay: Egg laying of Piper amalago var. amalago plant bred H. andraemon given a choice of plants on which to lay (Example 8); conditions: eggs laid on citrus plant sprayed with the substance, Piper amalago var. amalago-reared butterflies, choice of 4 plants
# From the text: H. andraemon larvae were reared on Piper amalago var. amalago plant. When they pupated and were ready to lay eggs, the butterflies were given the choice of plants on which to lay eggs: unsprayed lime plants, unsprayed Piper amalago var. amalago plants, citrus plant sprayed with Piper amalago var. amalago plant oil, and citrus plant sprayed with d-limonene. The egg laying was permitted to continue until the butterflies ceased laying eggs.
structure (smiles),measurement,setting,value
C=C(C)[C@H]1CC=C(C)CC1 [d-limonene],% of eggs laid,[1],25.00%
same,No. of eggs laid,[1]; total 208 eggs,52
same,% of eggs laid,[2],0%
same,No. of Eggs after 5 Days,[2],0
same,% of eggs laid,[3],13.47%
same,No. of eggs laid,[3]; total 193 eggs,26
